Six compounds from PubChem BioAssay (NCI) can be followed below.

Some test systems named below: UACC-257 melanoma; ACHN renal; A549 NSCLC; CAKI-1 renal; HCT-116 colon; HT29 colon; NCI-H23 lung; SR leukemia; NCI-H226 lung; BT-549 breast.
Holding throughout (experiment): inhibition of tumour cell growth, NCI panel, 48 h

Several values for one entry are separate records, joined by “and”; a condition that tells them apart may be missing. Equal entries are not always repeated.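 Compound exposure: 48 hours, 5 concentrations, 96-well plates. GI50 = concentration required for 50% inhibition of growth. The concentration for full growth arrest is given as TGI.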

With `CN1CCN(c2ccc3nc(-c4c(N)c5c(F)cccc5[nH]c4=O)[nH]c3c2)CC1`, the GI50 in the assay on UACC-257 melanoma is 1.69 µM and 0.83 µM and 2.54 µM; in the assay on ACHN renal, 0.335 µM and 0.342 µM and 0.371 µM; with A549 NSCLC it was 0.594 µM and 0.451 µM and 0.674 µM; in the assay with CAKI-1 renal, 0.213 µM and 0.282 µM and 0.387 µM; in the assay on HCT-116 colon it was 0.619 µM and 0.466 µM and 0.992 µM; in the assay on HT29 colon it was 0.909 µM and 0.663 µM and 1.43 µM. In addition, the GI50 with NCI-H23 lung was 1.53 µM and 0.9 µM and 2.05 µM; in the assay with SR leukemia it was 0.472 µM and 0.284 µM and 0.502 µM; in the assay with NCI-H226 lung it was 0.525 µM and 0.476 µM and 0.537 µM; with BT-549 breast, 1.62 µM and 0.501 µM and 1.26 µM. Besides, the TGI in the assay with UACC-257 melanoma was 3.26 µM and 2.39 µM and 8.32 µM; in the assay on ACHN renal, 1.83 µM and > 6.36 µM and 4.74 µM; in the assay on A549 NSCLC it was 2.15 µM and > 3.74 µM and 3.86 µM; with CAKI-1 renal, 1.57 µM and > 10 µM and 12.5 µM; with HCT-116 colon, 1.93 µM and 4.35 µM and 2.4 µM; with HT29 colon, 2.89 µM and > 5.42 µM and 11.2 µM. Moreover, the TGI was 6.44 µM and > 3.6 µM and 11.1 µM in the assay on NCI-H23 lung; 10.2 µM and 1.44 µM and 7.97 µM in the assay on SR leukemia; 8.36 µM and > 6.97 µM and 17.6 µM in the assay with NCI-H226 lung; 10.2 µM and > 2.97 µM and 5.95 µM in the assay with BT-549 breast.

For `CN(C)CCNC(=O)Cn1cc([N+](=O)[O-])c(=O)c2ccccc21`, the TGI in the assay with UACC-257 melanoma, in the assay with ACHN renal, in the assay with A549 NSCLC, with CAKI-1 renal, with HCT-116 colon and in the assay with HT29 colon was more than 100 µM each time. In addition, the TGI in the assay on NCI-H23 lung, in the assay with SR leukemia, in the assay on NCI-H226 lung and in the assay with BT-549 breast was more than 100 µM in each case.

Regarding `c1ccc(-c2cc(C3CO3)c3ccccc3n2)cc1` (stereo not drawn), the TGI in the assay with UACC-257 melanoma is 42.7 µM; with ACHN renal it was 32.8 µM; in the assay on A549 NSCLC it was 40.4 µM; in the assay on CAKI-1 renal it was 47.9 µM; in the assay with HCT-116 colon, 30.2 µM; in the assay on HT29 colon, 35.8 µM. Also, the TGI with NCI-H23 lung came to 37.5 µM; in the assay with SR leukemia, 45.3 µM; in the assay with NCI-H226 lung it was 43.1 µM; with BT-549 breast it was 43.6 µM.

Turning to `CC(=O)OCC(=O)O[C@@H]1C[C@]2(C(C)C)O[C@@]1(C)[C@@H]1CC[C@@H](C)[C@H]1[C@@H]2OC(=O)/C=C/c1ccccc1`, the GI50 with UACC-257 melanoma is 23.6 µM; in the assay with ACHN renal, 0.0316 µM; with A549 NSCLC, 18.5 µM; in the assay with CAKI-1 renal, 0.0244 µM; in the assay with HCT-116 colon it was 16.1 µM; with HT29 colon it was 23.6 µM. The GI50 with NCI-H23 lung was 23.7 µM; in the assay on SR leukemia, 12.2 µM; in the assay with NCI-H226 lung it was 10.6 µM; in the assay on BT-549 breast, 0.0987 µM. Besides, the TGI in the assay on UACC-257 melanoma was 87.4 µM; with ACHN renal, 12.5 µM; in the assay on A549 NSCLC, more than 100 µM; with CAKI-1 renal, 0.125 µM; in the assay with HCT-116 colon it was more than 100 µM; in the assay with HT29 colon, more than 100 µM. Further, the TGI in the assay on NCI-H23 lung is 99.1 µM; with SR leukemia, more than 95.9 µM; in the assay with NCI-H226 lung, 37.1 µM; in the assay on BT-549 breast it was 7 µM.

`O=C(Nc1cccc(Oc2nnc(Cl)c3ccccc23)c1)Nc1ccc(Cl)c(C(F)(F)F)c1`: the GI50 in the assay on UACC-257 melanoma was 0.952 µM; in the assay on ACHN renal, 0.711 µM; in the assay with A549 NSCLC, 1.1 µM; in the assay with CAKI-1 renal, 0.832 µM; with HCT-116 colon it was 1.05 µM; with HT29 colon, 0.771 µM. For the same compound, the GI50 in the assay on NCI-H23 lung is 0.907 µM; with SR leukemia, 0.321 µM; in the assay with NCI-H226 lung it was 2.14 µM; in the assay on BT-549 breast it was 0.674 µM. In addition, the TGI was 3.37 µM in the assay on UACC-257 melanoma; 3.8 µM in the assay with ACHN renal; 8.3 µM in the assay on A549 NSCLC; 6.5 µM in the assay with CAKI-1 renal; 3.51 µM with HCT-116 colon; 3.14 µM in the assay with HT29 colon. The TGI with NCI-H23 lung was 4.36 µM; in the assay on SR leukemia, 1.42 µM; with NCI-H226 lung, 7.2 µM; with BT-549 breast, 3.07 µM.

As for `CN(C)CCOc1ccc(/C(=C(/CCCl)c2ccccc2)c2ccccc2)cc1`, the GI50 in the assay with UACC-257 melanoma was 0.943 µM; in the assay on ACHN renal, 1.8 µM; with A549 NSCLC it was 1.27 µM; with CAKI-1 renal, 0.979 µM; with HCT-116 colon, 1.59 µM; in the assay with HT29 colon, 0.598 µM. For the same compound, the GI50 is 1.42 µM with NCI-H23 lung, 1.18 µM with SR leukemia, 1.34 µM in the assay with NCI-H226 lung and 0.976 µM in the assay with BT-549 breast. The TGI was 6.55 µM and 31.9 µM in the assay on ACHN renal; 3.24 µM and 29.9 µM with A549 NSCLC; 3.73 µM and 29.7 µM with CAKI-1 renal; 5.33 µM and 30.4 µM in the assay with HCT-116 colon; 5.52 µM and 31.3 µM in the assay with NCI-H23 lung; 3.13 µM and 10 µM in the assay with SR leukemia. The TGI in the assay with NCI-H226 lung is 13.4 µM and 39.3 µM; with BT-549 breast, 1.8 µM.
